Data published in patent US5786361A, “Pyridazino-, pyrimido-, pyrazino- and triazinoindoles, -pyrrolocycloalkenes or pyrrolooxocycloalkenes, or pyridopyrrolylpyrido compounds, compositions containing them, and use thereof to treat atherosclerosis” (Bayer Aktiengesellschaft, priority 1997, dated 1998).
pIC50: −log10 of the molar value.

The molecules below were run on HepG2 cells (assay: Inhibition of the release of ApoB-100-associated lipoproteins from liver cells (HepG2), immunoassay). Conditions: Homo sapiens; HepG2 culture supernatant; light adsorption at 450 nm vs solvent control; release of ApoB-100-associated particles.
Type: cell-based
Description: 1. Inhibition of the release of ApoB-100-associated lipoproteins
The test for detecting the inhibition of the release of ApoB-100-associatedlipoproteins from liver cells was carried out in vitro using cultured liver cells, preferably using cells of the human line HepG2. These cells are cultured under standard conditions in medium for the culture of eucaryotic cells, preferably in RPMI 1640 with 10% foetal calf serum. HepG2 cells synthesize and secrete into the culture supernatant ApoB-100-associated lipoprotein particles which in principle are constructed similarly to the VLDL and LDL particles which are to be found in the plasma.
These particles can be detected using an immunoassay for human LDL. This immunoassay is carried out using antibodies which have been induced in rabbits against human LDL under standard conditions. The anti-LDL antibodies (rabbit anti-LDL-Ab) were purified by affinity chromatography on an immunosorbent using human LDL. These purified rabbit anti-LDL-Ab are adsorbed on the surface of plastic. Expediently, this adsorption takes place on the plastic surface of microtitre plates having 96 depressions, preferably on MaxiSorp plates. If ApoB-100-associated particles are present in the supernatant of Hep-G2 cells, these can bind to the insolubilized rabbit anti-LDL-Abs, and an imunune complex results which is bound to the plastic surface. Unbound proteins are removed by washing. The immune complex on the plastic surface is detected using monoclonal antibodies which have been induced against human LDL under standard conditions and purified. These antibodies were conjugated to the enzyme peroxidase. Peroxidase converts the colourless substrate TMB into a coloured product in the presence of H2 O2. After acidification of the reaction mixture with H2 SO4, the specific light adsorption at 450 nm is determined, which is a measure of the amount of ApoB-100-associated particles which have been secreted into the culture supernatant by the HepG2 cells.
The IC50 value indicates at which substance concentration the light adsorption is inhibited by 50% in comparison with the control (solvent control without substance).

Row | SMILES | pIC50
1 | Cn1c(=O)c2c(c3ccccc3n2Cc2ccc([C@@H](C(=O)N[C@@H](CO)c3ccccc3)C3CCCC3)cc2)n(C)c1=O (mixture of isomers) [Example 2, 2-(R)- and 2-(S)-2-Cyclopentyl-2-(4-{1,3-dimethyl-1,5-dihydro-2,4-oxo-pyrimido-[5,4-b]indol-5-yl-methyl}phenyl)-aceticacidN-(2-hydroxy-1-(R)-1-phenyl-ethyl)amide] | 8.96
2 | Cc1nc(C)c2c3ccccc3n(Cc3ccc([C@@H](C(=O)N[C@@H](CO)c4ccccc4)C4CCCC4)cc3)c2n1 [Example 6] | 9.10
3 | Cc1nc(C)c2c3ccccc3n(Cc3ccc(C(C(=O)NCc4ccncc4)C4CCCC4)cc3)c2n1 (centres unmarked) [Example 10] | 9.00
4 | Cn1c(=O)c2c3ccccc3n(Cc3ccc([C@H](C(=O)N[C@@H](CO)c4ccccc4)C4CCCC4)cc3)c2c(=O)n1C [Example 16] | 8.05
5 | CSc1nnc2c3ccccc3n(Cc3ccc(C(C(=O)N[C@@H](CO)c4ccccc4)C4CCCC4)cc3)c2n1 (some centres unmarked) [Example 26] | 8.74
